Columns and labels:
[1] = tested on: cellulose synthesis in algae and plants; conditions: cited from earlier work
wild type Arabidopsis = conditions: 12 μM; cited from earlier work
ixr1-1 mutant = conditions: 12 μM; cited from earlier work
[2] = tested on: ixr1-1-, ixr1-2- and wild-type Arabidopsis plants; test: isoxaben-resistance pilot screen, spraying of soil-grown plants; assay type: in vivo, Arabidopsis thaliana; conditions: sprayed every 3 days from seedling stage, 1 ml/6 cm^2 soil surface, 0.025% DMSO
Protocol: Seeds from homozygous isoxaben-resistant mutants ixr1-1 (DH47) and ixr1-2 (DH48) (Heim et al., 1989) were obtained from the Arabidopsis Biological Resource Center, Columbus, Ohio (ABRC stock numbers CS 6201 and CS 6202). Seeds were vernalized for five days in 0.15% water agar at 6° C. prior to planting in a commercial peat-vermiculite-perlite mix (ProMix HP with a 1 cm top-layer of ProMix PGX, Premier Horticulture Inc., Red Hill, Pa., Canada). Plants were grown in the greenhouses of Carnegie Institution of Washington, Department of Plant Biology, Stanford, Calif. between July 1998 and June 1999. Seeds from self-pollinated ixr1-1 and ixr1-2 mutants were collected separately and used for further experiments.
Isoxaben (95%, N-3-[1-ethyl-1-methyl-propyl]-5-isoxazolyl-2, 6-dimethoxybenzamide) was graciously supplied by DowElanco (Indianapolis, Ind.) and was made up as a concentrated dimethylsulfoxide (DMSO) stock solution and used at concentrations ranging from 0.03 to 10.0 μM. The final concentration of DMSO was always 0.025%. Control cultures without isoxaben contained the same amount of DMSO as the isoxaben-treated cultures; no effect of DMSO was noted.

Brassica napus = conditions: in vivo; read-out: I50 for Brassica napus; cited from earlier work
cellulose biosynthesis = conditions: compared with dichlobenil, another cellulose synthesis inhibitor; cited from earlier work
[3] = tested on: seed germination, mitosis, respiration, photosynthesis, and lipid and RNA synthesis; conditions: cited from earlier work
[4] = tested on: wild-type Col and Ler plants; test: growth analysis under isoxaben spray, wild-type plants; conditions: 2.0 μM isoxaben in the spray solution
Protocol: (§1) Seeds from wild-type Col and Ler, ixr1-1 and ixr1-2 homozygous mutants and F1- and F2-seeds were germinated again and treated as described using 2.0 μM isoxaben in the solution.

[5] = tested on: ixr1-1 and ixr1-2 mutant plants; test: growth analysis under isoxaben spray, ixr1 mutant plants; conditions: 2.0 μM isoxaben
Protocol: as §1

N#Cc1c(Cl)cccc1Cl [DCB, 2,6-dichlorobenzonitrile]
inhibition of cellulose synthesis [1]: effective and specific inhibitor

CC(C)(C)NC(=O)OC1SCN(c2cccc(C(F)(F)F)c2)C1=O (stereo not shown) [TZ, 5-tert-butyl-carbamoyloxy-3-(3-trifluromethyl) phenyl-4-thiazolidnone]
effect on wild type Arabidopsis (wild type Arabidopsis): kills
reduction of growth of the ixr1-1 mutant (ixr1-1 mutant): 50%

CCC(C)(CC)c1cc(NC(=O)c2c(OC)cccc2OC)on1 [isoxaben, N-3-[1-ethyl-1-methyl-propyl]-5-isoxazolyl-2,6-dimethoxybenzamide]
concentration in the application solution high enough to discriminate resistant and susceptible plants [2]: 1.0 to 3.0 µM
IC50 (Brassica napus): 0.02 µM
acts at lower concentrations than dichlobenil (factor) (cellulose biosynthesis): < 40 ×
effect on other cellular processes [3]: unaffected
growth of wild-type plants [4]: didn't grow at all
growth of heterozygous mutant F1-plants ([5]; heterozygous F1, compared to the homozygous mutants): clearly reduced growth
growth of homozygous mutants ([5]; homozygous ixr1-1 and ixr1-2 (ixr1-1 grew better than ixr1-2)): grew well

From patent publication US7241878B1, “Modified cellulose synthase gene from Arabidopsis thaliana confers herbicide resistance to plants” (U.S. Department of Energy, priority 1999, dated 2007)
